Test results reported in patent US20240173317A1, “METHODS FOR TREATING PROGRESSIVE FAMILIAL INTRAHEPATIC CHOLESTASIS” (MIRUM PHARMACEUTICALS, INC., priority 2022, published 2024).

Key:
Format in all cases: in vivo, human
subjects with PFIC [1] = test: Clinical laboratory evaluations (ALT/transaminases, INR, vitamins A, D, E), MARCH-PFIC Phase 3 study
Excerpt: Clinical Laboratory Evaluations.
For subjects with a confirmed increase in ALT or TSB level, meeting the close monitoring criteria, the following investigations were considered, as clinically indicated: 1) Close and frequent monitoring of liver enzyme and serum bilirubin tests as clinically indicated; 2) Symptoms as well as prior, current, and intercurrent diseases/illnesses; 3) Use of or recent change in use of concomitant treatment (including non-prescription medications, herbal and dietary supplement preparations), alcohol use, recreational drug use, and special diets; 4) History for exposure to environmental chemical agents and travel; 5) Serology for viral hepatitis (HAV IgM, HBsAg, HCV antibody, HCVRNA, CMV IgM, and EBV antibody panel); 6) Serology for autoimmune hepatitis (e.g., antinuclear antibody [ANA]); 7) AST, creatine phosphokinase (CPK), and lactate dehydrogenase (LDH); 8) CBC with differential blood count (eosinophils); 9) Reticulocyte count, PT/INR.

subjects with PFIC [2] = test: Total serum bile acid (sBA) level, MARCH-PFIC Phase 3 study; conditions: for percentage of sBA response (sBA responders): Week 18 to Week 26
Protocol: Serum bile acids and other cholestasis biomarkers. Blood samples were collected as described in Table 1 to measure levels of cholestasis biomarkers including total sBA, sBA subspecies, C4, FGF-19, and autotaxin as well as liver related parameters. Subjects were encouraged to fast at least 6 hours prior to collection (water intake was permitted if necessary but not recommended). Total sBA and targeted bile acid subspecies were quantified with liquid chromatography mass spectrometry (LC-MS) methodology for exploratory assessments. In addition, screening total sBA will be assessed with an enzymatic assay for inclusion criteria evaluation. C4, a key intermediate in the pathway for bile acid synthesis from cholesterol, will be determined by a validated LC-MS/MS method. The secondary efficacy endpoints are defined as Mean change in total serum bile acid (sBA) level between baseline and average of Weeks 18, 22, and 26 (FIGS. 11-12); 2) Percentage of ItchRO(Obs) responders from Week 15 to Week 26 (FIGS. 13A and 14A); 3) Percentage of sBA responders from Week 18 to Week 26 (FIGS. 13B and 14B). Pruritus responders are defined as a subject having a 4-week average morning ItchRO (Obs) severity change from baseline of […] OR an average severity score of ≤1.0. For the purpose of determining response, the average severity score from the three 4-week periods (weeks 15-18, 19-22 and 23-26) are used. A subject is defined as an ItchRO non-responder if the 4-week average baseline score is missing OR all three 4-week average (post-baseline) scores are missing. sBA responders are defined as a subject having an average sBA level of <102 μmon (applies only if baseline sBA was ≥102 μmon) OR a ≤−75% average percent change from baseline. For the purpose of determining response, the average sBA value from Weeks 18, 22 and 26 values are used. A subject is defined as an sBA non-responder if the baseline sBA value is missing OR sBA values are missing at all 3 time points (i.e., Weeks 18, 22, and 26). p-values comparing maralixibat to placebo treatment groups are calculated using Barnard's exact test.

[3] = Growth z-scores (height, weight), MARCH-ON long-term extension
Excerpt: Eighty-five patients from MARCH trial enrolled in MARCH-ON (Table 10, FIG. 29A). Forty-seven patients had received Maralixibat (MRX-MRX) and 38 had received placebo (PBO-MRX) during MARCH trial.
PFIC subtypes of patients included in the study were: non-truncated bile salt export pump (nt-B SEP, n=27), familial intrahepatic cholestasis-associated protein type 1 (F1C1, n=13); multidrug-resistance 3 protein (MDR3, n=9); tight junction protein 2 (TJP2, n=6); myosin VB (MYO5B, n=2); heterozygosis (n=2); truncated B SEP (t-B SEP, n=9); variant not found (n=8), fluctuating sBA (n=2); and surgery (n=7). Efficacy analyses included n=33 in the MRX-MRX group and n=24 in the PRO-MRX group. Subtypes nt-BSEP, F1C1, MDR3, TJP2, and MYO5B were included in the efficacy analyses. Baseline was defined as the start of maralixibat (MRX) treatment for each group.
Methods: Long-term maintenance of response was assessed for patients who were originally randomized to receive MRX in MARCH and continued with treatment in MARCH-ON (MRX-MRX group; n=33). MRX response was assessed for patients who received PBO in the MARCH study and switched to open-label MRX in MARCH-ON (PBO-MRX group; n=24). Assessments included: pruritus measured by 0-4 scale of ItchRO[Obs], sBA, bilirubin, and growth z-scores, as well as incidence of treatment-emergent adverse events(TEAEs). Baseline (BL) was defined as the start of MRX for each group.

[4] = All PFIC cohort, average of Weeks 18, 22, 26, FIG. 11B
[5] = BSEP deficiency cohort, average of Weeks 18, 22, 26, FIG. 11A
[6] = MRX-MRX group (n = 20), Baseline to Week 52
[7] = PBO-MRX group (n = 15), Baseline to Week 26

CCCCC1(CCCC)CS(=O)(=O)c2ccc(N(C)C)cc2[C@@H](c2ccc(OCc3ccc(C[N+]45CCN(CC4)CC5)cc3)cc2)[C@H]1O [maralixibat, 1-(4-((4-((4R,5R)-3,3-dibutyl-7-(dimethylamino)-4-hydroxy-1,1-dioxido-2,3,4,5-tetrahydrobenzo[b]thiepin-5-yl)phenoxy)methyl)benzyl)-1,4-diazabicyclo[2.2.2]octan-1-ium]
changes in serum ALT (subjects with PFIC [1]; All-PFIC Cohort, FIG. 26A-B): No significant changes
changes from baseline in transaminase levels (subjects with PFIC [1]; MARCH, either group): no clinically meaningful changes
changes from baseline in serum levels of vitamins A, D, and E (subjects with PFIC [1]; MARCH, under regular FSV supplementation): No clinically meaningful changes
International normalized ratio (INR), mean change from Baseline (subjects with PFIC [1]; MARCH, week 26): −0.3
reduction of sBA levels (mean change from baseline) (subjects with PFIC [2]; [4]): over 150 μmon
sBA difference from placebo (subjects with PFIC [2]; [4]): 160.403 μmon
percentage of sBA response (sBA responders) (subjects with PFIC [2]; BSEP deficiency cohort, FIG. 13B): 35.7%
reduction of sBA levels (mean change from baseline) (subjects with PFIC [2]; [5]): ~200 µmol/L
sBA difference from placebo (subjects with PFIC [2]; [5]): 186.723 µmol/L
improvements in serum bile acid levels (subjects with PFIC [2]; FIC1, MDR3, TJP2, MYO5B cohorts, FIG. 34A-B): Significant improvements
reduction of sBA levels (mean change from baseline) (subjects with PFIC [2]; FIC1 cohort, FIG. 12A): ~100 µmol/L
sBA difference from placebo (subjects with PFIC [2]; FIC1 cohort, FIG. 12A): 126.382 µmol/L
percentage of sBA response (sBA responders) (subjects with PFIC [2]; FIG. 14B, sentence prints BSEP deficiency cohort): 45.5%
reduction of sBA levels (mean change from baseline) (subjects with PFIC [2]; MDR3 cohort, FIG. 12B): 150 μmon
sBA difference from placebo (subjects with PFIC [2]; MDR3 cohort, FIG. 12B): 135.089 μmon
sBA levels lower at each time point (change from baseline over time) (subjects with PFIC [2]; Week 2 to Week 26, BSEP deficiency group, PFIC group, all study participants, FIG. 15A-C): more than 100 μmon
improvements in serum bile acid levels (subjects with PFIC [2]; full-study population, FIG. 35B): statistically significant and clinically meaningful improvements
improvements in serum bile acid levels (subjects with PFIC [2]; patients with no-variant found, FIG. 35D): demonstrated improvements
Height Z-score, mean change from Baseline [3, 6]: +0.54
Weight Z-score, mean change from Baseline [3, 6]: +0.44
Height Z-score, mean change from Baseline [3, 7]: +0.46
Weight Z-score, mean change from Baseline [3, 7]: +0.09
